Data: ChEMBL document CHEMBL1142631, “Potential antitumor-promoting diterpenoids from the stem bark of Picea glehni” (J Nat Prod, 2000)

Assays:
[1] = system: Raji; assay: Inhibition of 12-O-tetradecanoylphorbol 13-acetate-induced Epstein-Barr virus early antigen activation in human Raji cells assessed as EA induction at 10 mol ratio relative to TPA; values are per cent of control; conditions: human gammaherpesvirus 4
[2] = Cytotoxicity against human Raji cells assessed as cell viability at 1000 molar ratio/TPA; type: cell-based; conditions: read-out: Activity
[3] = system: Raji; assay: Inhibition of 12-O-tetradecanoylphorbol 13-acetate-induced Epstein-Barr virus early antigen activation in human Raji cells assessed as EA induction at 1000 mol ratio relative to TPA; values are per cent of control; conditions: human gammaherpesvirus 4
[4] = system: Raji; assay: Inhibition of 12-O-tetradecanoylphorbol 13-acetate-induced Epstein-Barr virus early antigen activation in human Raji cells assessed as EA induction at 500 mol ratio relative to TPA; values are per cent of control; conditions: human gammaherpesvirus 4
[5] = system: Raji; assay: Inhibition of 12-O-tetradecanoylphorbol 13-acetate-induced Epstein-Barr virus early antigen activation in human Raji cells assessed as EA induction at 100 mol ratio relative to TPA; values are per cent of control; conditions: human gammaherpesvirus 4

Structure (SMILES)	level, % of control [1]	viability at 1000 molar ratio/TPA [2]	level, % of control [3]	level, % of control [4]	level, % of control [5]
CC(C)c1ccc2c(c1)CC[C@H]1[C@](C)(C(=O)O)CCC[C@]21C [DEHYDROABIETIC ACID]	95.2%	70%	0%	30.6%	75%
CC1=C(/C=C/C(C)=C/C=C/C(C)=C/C=C/C=C(C)/C=C/C=C(C)/C=C/C2=C(C)CCCC2(C)C)C(C)(C)CCC1	100%	–	9%	34%	82%
C=C[C@]1(C)CC[C@@H]2[C@@]3(C)CC[C@@H](C)C(=C)[C@@H]3CC[C@@]2(C)O1	100%	70%	5.1%	38.8%	77.1%
CC(C)[C@]12C=C3CC[C@H]4[C@](C)(C(=O)O)CCC[C@]4(C)[C@]3(CC1)OO2	90.5%	70%	0%	24.2%	63.7%
C=C1CCC[C@]2(C)c3ccc(C(C)C)cc3C(=O)C[C@@H]12	96.1%	70%	0%	31.6%	75.9%
COC(=O)[C@]1(C)CCC[C@]2(C)c3ccc(C(C)(C)O)cc3C(=O)C[C@@H]12	95%	70%	0%	28.1%	72.9%
CC(C)c1cc2c(cc1O)[C@@]1(C)CCC[C@@](C)(C(=O)O)[C@@H]1CC2	95.8%	70%	2.7%	28%	66.4%
CC(C)c1ccc2c(c1)C(=O)C[C@H]1C(C)(C)CCC[C@]21C	95%	70%	0%	30.2%	74.7%
C=C[C@]1(C)CC[C@@H]2[C@@]3(C)CCCC(C)(C)[C@@H]3CC[C@@]2(C)O1	100%	70%	4.3%	35.9%	70.4%
CC(C)c1ccc2c(c1)CC[C@H]1[C@](C)(C(=O)O)CCC[C@]1(C)O2	96.9%	60%	10.2%	52.7%	85%
CC(=O)/C=C/[C@@H]1[C@@]2(C)CCCC(C)(C)[C@@H]2CC[C@@]1(C)O	89.3%	60%	0%	20.7%	68.4%
